Results as given in patent publication US20210145801A1, “THERAPY FOR PROTEIN MISFOLDING DISEASE” (WREN THERAPEUTICS LIMITED, priority 2018, published 2021).

Assays:
Aβ42 = target: T1, Aβ42 (Homo sapiens, UniProt P05067); assay: ThT kinetic assay of Aβ42 aggregation (unseeded); format: biochemical
T1 construct: made in house; host or cells: E. coli BL21 Gold (DE3)
Description: The recombinant Aβ(M1-42) peptide ([…]-SNKGAIIGLMVGGVVIA [SEQ ID NO: 1]), here called Aβ42, was expressed in the E. coli BL21 Gold (DE3) strain (Stratagene, Calif., U.S.A.) and purified as described previously with slight modifications. Briefly, the purification procedure involved sonication of E. coli cells, dissolution of inclusion bodies in 8 M urea, and ion exchange in batch mode on diethylaminoethyl cellulose resin and lyophylization. The lyophilized fractions were further purified using Superdex 75 HR 26/60 column (GE Healthcare, Buckinghamshire, U.K.) and eluates were analyzed using SDS-PAGE for the presence of the desired protein product. The fractions containing the recombinant protein were combined, frozen using liquid nitrogen, and lyophilized again.
Except for Netoglitazone, which was custom synthesised by GVK BIO, all small molecules were purchased with a purity greater than 99%. Small molecules were first solubilized in 100% DMSO to a concentration of 5 mM, and then diluted in the peptide solution to reach a final DMSO concentration of maximum 1-3%. We verified that the addition of DMSO in the reaction mixture has no effect on Aβ42 aggregation.
Solutions of monomeric peptides were prepared by dissolving the lyophilized Aβ42 peptide in 6 M GuHCl. Monomeric forms were purified from potential oligomeric species and salt using a Superdex 75 10/300 GL column (GE Healthcare) at a flowrate of 0.5 mL/min, and were eluted in 20 mM sodium phosphate buffer, pH 8 supplemented with 200 μM EDTA and 0.02% NaN3. The centre of the peak was collected, and the peptide concentration was determined from the absorbance of the integrated peak area using ε280=1490 L mol^−1 cm^−1. The obtained monomer was diluted with buffer to the desired concentration and supplemented with 20 μM Thioflavin T (ThT) from a 1 mM stock. All samples were prepared in low binding Eppendorf tubes on ice using careful pipetting to avoid introduction of air bubbles. Each sample was then pipetted into multiple wells of a 96-well half-area, low-binding, clear bottom and PEG coating plate (Corning 3881), 80 μL per well. Aβ42 kinetics have been performed in the absence or the presence of Netoglitazone, Mitoglitazone, Rosiglotazone, Rivoglitazone, Pioglitazone, Ciglitazone, Englitazone, Darglitazone, Troglitazone and Balaglitazone.
The time evolution of the total fibril mass concentration is described as a function only of the initial conditions and the rate constants of the system by the integrated rate law given by Eq. (54) in Cohen et al., J Chem Phys 135, 065106, 2011.
These are related to the rate of formation of new aggregates through primary pathways λ=√{square root over (2k+knm(0)^n^c)} and through secondary pathways κ=√{square root over (2k+k2m(0)^n^2^+1)}, where the initial concentration of soluble monomers is denoted by m(0), nc and n2 describe the dependencies of the primary and secondary pathways on the monomer concentration (nc=n2=2 for Aβ42), and kn, k+ and k2 are the rate constants of the primary nucleation, elongation and secondary nucleation, respectively (Cohen et al., Proc Natl Acad Sci USA, 110(24), 9758-63, 2013).
Inhibitors can interfere with the aggregation process by inhibiting one or more of the individual microscopic steps.

Aβ40 = target: T2, Aβ40 (Homo sapiens, UniProt P05067); assay: Aβ40 aggregation kinetics; format: biochemical; conditions: 10 μM Aβ40; 1.25-fold excess
T2 construct: similar kinetics experiments were performed on the 40-residue isoform, Aβ40
T2 sequence (P05067 672-711 limits assumed): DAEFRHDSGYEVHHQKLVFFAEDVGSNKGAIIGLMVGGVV
Procedure: For the experiments monitoring Aβ40 aggregation kinetics, the experiments were performed similarly to those described above for Aβ42 at a concentration of 10 μM of Aβ40 in the absence or presence of 1.25-fold excess of Netoglitazone.

[1] = tested on: N2 control (healthy) worms; assay: Automated motility assay in healthy control worms; format: in vivo, C. elegans; conditions: same concentration range as in AD worms
Procedure: Standard conditions were used for the propagation of C. elegans (S. Brenner, The genetics of Caenorhabditis elegans. Genetics. 77, 71-94 (1974)). Briefly, the animals were synchronized by hypochlorite bleaching, hatched overnight in M9 buffer (3 g/l KH2PO4, 6 g/l Na2HPO4, 5 g/l NaCl, […]), and subsequently cultured at 20° C. on nematode growth medium (NGM) (CaCl2) 1 mM, MgSO4 1 mM, cholesterol 5 μg/mL, PBS Buffer (250 μM KH2PO4, 67.5 μM KCl, 3.425 mM of NaCl, pH 6), Agar 17 g/L, NaCl 3 g/1, casein 7.5 g/l) plates seeded with the E. coli strain OP50. […]
All C. elegans populations were cultured at 20° C. and developmentally synchronized from a 4 h egg-lay. At 64-72 h post-egg-lay (time zero), individuals were transferred to FUDR plates, and body movements were assessed over the times indicated. At different ages, the animals were washed off the plates with M9 buffer and spread over an OP-50 unseeded 9 cm plate, after which their movements were recorded at 20 fps using a recently developed microscopic procedure (M. Perni et al., Massively parallel C. elegans tracking provides multi-dimensional fingerprints for phenotypic discovery. J. Neurosci. Methods. 306, 57-67 (2018)) for 1 min. Up to 600 animals were counted in each experiment in duplicate unless stated otherwise. […]

T1 sequence (P05067 671-713): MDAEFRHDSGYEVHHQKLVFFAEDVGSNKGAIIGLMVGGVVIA

O=C1NC(=O)C(Cc2ccc3cc(OCc4ccccc4F)ccc3c2)S1 (stereo not shown) [Netoglitazone]
Effect on rate constants of primary (knk+) and secondary (k2k+) pathways (Aβ42; 2 μM Aβ42, unseeded, fit of rate laws): can affect both nucleation pathways in Aβ42 aggregation to different extents | Delay of Aβ42 aggregation (ThT fibril formation) (Aβ42; 2 μM Aβ42, range of Netoglitazone concentrations): substantial delay in Aβ42 aggregation was observed in a concentration-dependent manner | Inhibition of Aβ40 aggregation (Aβ40): able to inhibit Aβ40 aggregation similarly to the 42-residue isoform | Effect on mobility of healthy worms [1]: negligible compared to the observed effect in AD worms
